Assay results from ChEMBL document CHEMBL3046966, “Structure and Fungicidal Activities of 2-Methoxyimino-N-methyl-2-[2-(substituted pyridyloxymethyl)phenyl]acetamide Derivatives” (1998).

Assays:
Assay type in all cases: functional
[1] = tested on: Pseudoperonospora cubensis; test: Fungicidal activity against Pseudoperonospora cubensis assessed as cucumber downy mildew disease control at 2 ppm foliar application 24 hr after inoculation by curative manner
Podosphaera fuliginea [2] = test: Fungicidal activity against Podosphaera fuligineas assessed as cucumber […] mildew disease control at 2 ppm foliar application 24 hr after inoculation by curative manner
Podosphaera fuliginea [3] = test: Fungicidal activity against Podosphaera fuligineas assessed as cucumber […] mildew disease control at 2 ppm foliar application 24 hr before inoculation by preventive manner
[4] = tested on: Blumeria graminis f. sp. tritici; test: Fungicidal activity against Blumeria graminis f. sp. tritici assessed as wheat powdery mildew disease control at 2 ppm foliar application for 24 hr before inoculation by preventive manner
[5] = tested on: Pseudoperonospora cubensis; test: Fungicidal activity against Pseudoperonospora cubensis assessed as cucumber downy mildew disease control at 7.8 ppm foliar application 24 hr after inoculation by preventive manner
[6] = tested on: Blumeria graminis f. sp. tritici; test: Fungicidal activity against Blumeria graminis f. sp. tritici assessed as wheat powdery mildew disease control at 2 ppm foliar application for 24 hr after inoculation by curative manner
Botrytis cinerea [7] = test: Fungicidal activity against Botryotinia fuckeliana assessed as cucumber gray mold disease control at 7.8 ppm foliar application 24 hr before inoculation by preventive manner
Pyricularia oryzae [8] = test: Fungicidal activity against Magnaporthe oryzae assessed as rice blast disease control at 7.8 ppm foliar application for 24 hr before inoculation by preventive manner
Botrytis cinerea [9] = test: Fungicidal activity against Botryotinia fuckeliana assessed as cucumber gray mold disease control at 2 ppm foliar application 24 hr after inoculation by curative manner
Pyricularia oryzae [10] = test: Fungicidal activity against Magnaporthe oryzae assessed as rice blast disease control at 7.8 ppm foliar application for 24 hr after inoculation by curative manner
Botrytis cinerea [11] = test: Fungicidal activity against Botryotinia fuckeliana assessed as cucumber gray mold disease control at 2 ppm foliar application 24 hr before inoculation by preventive manner
[12] = tested on: Blumeria graminis f. sp. tritici; test: Fungicidal activity against Blumeria graminis f. sp. tritici assessed as wheat powdery mildew disease control at 7.8 ppm foliar application for 24 hr before inoculation by preventive manner
Botrytis cinerea [13] = test: Fungicidal activity against Botryotinia fuckeliana assessed as cucumber gray mold disease control at 31.3 ppm foliar application 24 hr after inoculation by curative manner
Pyricularia oryzae [14] = test: Fungicidal activity against Magnaporthe oryzae assessed as rice blast disease control at 31.3 ppm foliar application for 24 hr after inoculation by curative manner
Pyricularia oryzae [15] = test: Fungicidal activity against Magnaporthe oryzae assessed as rice blast disease control at 31.3 ppm foliar application for 24 hr before inoculation by preventive manner
[16] = tested on: Pseudoperonospora cubensis; test: Fungicidal activity against Pseudoperonospora cubensis assessed as cucumber downy mildew disease control at 125 ppm foliar application 24 hr after inoculation by preventive manner
Podosphaera fuliginea [17] = test: Fungicidal activity against Podosphaera fuligineas assessed as cucumber […] mildew disease control at 31.3 ppm foliar application 24 hr after inoculation by curative manner
[18] = tested on: Pseudoperonospora cubensis; test: Fungicidal activity against Pseudoperonospora cubensis assessed as cucumber downy mildew disease control at 7.8 ppm foliar application 24 hr after inoculation by curative manner
Pyricularia oryzae [19] = test: Fungicidal activity against Magnaporthe oryzae assessed as rice blast disease control at 125 ppm foliar application for 24 hr before inoculation by preventive manner
Podosphaera fuliginea [20] = test: Fungicidal activity against Podosphaera fuligineas assessed as cucumber […] mildew disease control at 31.3 ppm foliar application 24 hr before inoculation by preventive manner
[21] = tested on: Pseudoperonospora cubensis; test: Fungicidal activity against Pseudoperonospora cubensis assessed as cucumber downy mildew disease control at 31.3 ppm foliar application 24 hr after inoculation by preventive manner
Botrytis cinerea [22] = test: Fungicidal activity against Botryotinia fuckeliana assessed as cucumber gray mold disease control at 125 ppm foliar application 24 hr after inoculation by curative manner
Podosphaera fuliginea [23] = test: Fungicidal activity against Podosphaera fuligineas assessed as cucumber […] mildew disease control at 7.8 ppm foliar application 24 hr before inoculation by preventive manner
[24] = tested on: Blumeria graminis f. sp. tritici; test: Fungicidal activity against Blumeria graminis f. sp. tritici assessed as wheat powdery mildew disease control at 125 ppm foliar application for 24 hr after inoculation by curative manner
Botrytis cinerea [25] = test: Fungicidal activity against Botryotinia fuckeliana assessed as cucumber gray mold disease control at 125 ppm foliar application 24 hr before inoculation by preventive manner
[26] = tested on: Pseudoperonospora cubensis; test: Fungicidal activity against Pseudoperonospora cubensis assessed as cucumber downy mildew disease control at 31.3 ppm foliar application 24 hr after inoculation by curative manner
Pyricularia oryzae [27] = test: Fungicidal activity against Magnaporthe oryzae assessed as rice blast disease control at 125 ppm foliar application for 24 hr after inoculation by curative manner
[28] = tested on: Blumeria graminis f. sp. tritici; test: Fungicidal activity against Blumeria graminis f. sp. tritici assessed as wheat powdery mildew disease control at 31.3 ppm foliar application for 24 hr before inoculation by preventive manner
Podosphaera fuliginea [29] = test: Fungicidal activity against Podosphaera fuligineas assessed as cucumber […] mildew disease control at 7.8 ppm foliar application 24 hr after inoculation by curative manner
Botrytis cinerea [30] = test: Fungicidal activity against Botryotinia fuckeliana assessed as cucumber gray mold disease control at 31.3 ppm foliar application 24 hr before inoculation by preventive manner
[31] = tested on: Blumeria graminis f. sp. tritici; test: Fungicidal activity against Blumeria graminis f. sp. tritici assessed as wheat powdery mildew disease control at 31.3 ppm foliar application for 24 hr after inoculation by curative manner
Pyricularia oryzae [32] = test: Fungicidal activity against Magnaporthe oryzae assessed as rice blast disease control at 2 ppm foliar application for 24 hr before inoculation by preventive manner
Pyricularia oryzae [33] = test: Fungicidal activity against Magnaporthe oryzae assessed as rice blast disease control at 2 ppm foliar application for 24 hr after inoculation by curative manner
[34] = tested on: Pseudoperonospora cubensis; test: Fungicidal activity against Pseudoperonospora cubensis assessed as cucumber downy mildew disease control at 2 ppm foliar application 24 hr before inoculation by preventive manner
Botrytis cinerea [35] = test: Fungicidal activity against Botryotinia fuckeliana assessed as cucumber gray mold disease control at 7.8 ppm foliar application 24 hr after inoculation by curative manner
[36] = tested on: Blumeria graminis f. sp. tritici; test: Fungicidal activity against Blumeria graminis f. sp. tritici assessed as wheat powdery mildew disease control at 7.8 ppm foliar application for 24 hr after inoculation by curative manner

| Compound | Activity [1] | Activity (Podosphaera fuliginea [2]) | Activity (Podosphaera fuliginea [3]) | Activity [4] | Activity [6] | Activity (Botrytis cinerea [7]) | Activity (Pyricularia oryzae [8]) | Activity (Botrytis cinerea [9]) | Activity (Pyricularia oryzae [10]) | Activity [12] | Activity (Botrytis cinerea [13]) | Activity (Pyricularia oryzae [14]) | Activity [16] | Activity (Pyricularia oryzae [19]) | Activity (Podosphaera fuliginea [23]) | Activity [26] | also measured |
| --- | --- | --- | --- | --- | --- | --- | --- | --- | --- | --- | --- | --- | --- | --- | --- | --- | --- |
| CNC(=O)/C(=N/OC)c1ccccc1COc1ncc(Cl)cc1C(F)(F)F | 90% | 90% | 90% | 90% | 90% | 90% | 90% | 90% | 90% |  |  |  |  |  |  |  | Activity [5]: 90% |
| CNC(=O)/C(=N/OC)c1ccccc1COc1ncc(C(F)(F)F)cc1Cl | 90% | 90% | 90% | 90% | 90% |  | 90% | 90% | 90% |  |  |  |  |  |  |  | Activity [5]: 90%; Activity (Botrytis cinerea [11]): 90% |
| CNC(=O)/C(=N/OC)c1ccccc1COc1nc(Cl)c(C(F)(F)F)cc1Cl | 90% | 90% | 90% |  | 90% | 90% |  |  |  | 90% | 90% | 90% | 90% |  |  |  | Activity (Pyricularia oryzae [15]): 90% |
| CNC(=O)/C(=N/OC)c1ccccc1COc1ccc(Cl)cn1 |  |  |  |  | 90% |  |  | 90% |  | 90% |  | 90% |  | 90% |  |  | Activity (Podosphaera fuliginea [17]): 90%; Activity [18]: 90%; Activity (Podosphaera fuliginea [20]): 90%; Activity [21]: 90%; Activity (Botrytis cinerea [11]): 90% |
| CNC(=O)/C(=N/OC)c1ccccc1COc1ccc(C(F)(F)F)c(OC(C)C)n1 |  |  |  |  |  |  |  |  |  |  |  |  | <90% | 90% | 90% | 90% | Activity (Botrytis cinerea [22]): <90%; Activity [24]: 90%; Activity (Botrytis cinerea [25]): <90%; Activity (Pyricularia oryzae [27]): 90%; Activity [28]: 90%; Activity (Podosphaera fuliginea [29]): 90% |
| CNC(=O)/C(=N/OC)c1ccccc1COc1ccccn1 |  |  |  |  |  |  |  |  |  | 90% | 90% |  | 90% | <90% | 90% | 90% | Activity (Podosphaera fuliginea [17]): 90%; Activity (Pyricularia oryzae [27]): <90%; Activity (Botrytis cinerea [30]): 90%; Activity [31]: 90% |
| CNC(=O)/C(=N/OC)c1ccccc1COc1ncccc1C(F)(F)F |  | 90% |  | 90% | 90% | 90% |  | 90% |  |  |  |  |  |  | 90% | 90% | Activity (Pyricularia oryzae [32]): 90%; Activity [21]: 90%; Activity (Pyricularia oryzae [33]): 90% |
| CNC(=O)/C(=N/OC)c1ccccc1COc1nc(Cl)ccc1C(F)(F)F | 90% | 90% | 90% | 90% | 90% | 90% | 90% |  | 90% |  |  |  |  |  |  |  | Activity [34]: 90%; Activity (Botrytis cinerea [35]): 90% |
| CNC(=O)/C(=N/OC)c1ccccc1COc1ncc(Cl)cc1Cl | 90% | 90% | 90% |  |  |  | 90% |  |  | 90% | 90% | 90% |  |  |  |  | Activity [34]: 90%; Activity (Botrytis cinerea [30]): 90%; Activity [36]: 90% |
